Assay results published in ChEMBL document CHEMBL3758181, “New approach towards the synthesis of selenosemicarbazones, useful compounds for Chagas' disease” (Eur J Med Chem, 2016).
Active and inactive are the calls of the source. No cut-off for these calls is given here.

How the values were obtained:
Trypanosoma cruzi [1] = assay: Antitrypanosomal activity against epimastigote stage of Trypanosoma cruzi Dm28c after 72 hrs by resazurin dye based microplate reader analysis; assay type: functional
[2] = Selectivity index, ratio of CC50 for African green monkey Vero cells to IC50 for epimastigote stage of Trypanosoma cruzi Dm28c; assay type: functional
Mus musculus = assay: Toxicity in acute chagas BALB/c mouse model infected with trypomastigotes stage of Trypanosoma cruzi strain CL Brener assessed as mortality at 50 mg/kg/day, po administered for 14 days started on day 9 post infection measured at 30 to 60 days; assay type: organism-based; settings: in vivo
Trypanosoma cruzi [3] = assay: Antitrypanosomal activity against trypomastigotes stage of Trypanosoma cruzi strain CL Brener infected in acute chagas BALB/c mouse model assessed as survival rate at 50 mg/kg/day, po administered for 14 days started on day 9 post infection measured at 30 to 60 days; assay type: functional, organism-based
Trypanosoma cruzi [4] = assay: (§1) Antitrypanosomal activity against trypomastigotes stage of Trypanosoma cruzi strain CL Brener infected in acute chagas BALB/c mouse model assessed as survival rate at 10 mg/kg/day, po administered for 14 days started on day 9 post infection measured at 30 to 60 days; assay type: functional
[5] = Toxicity in acute chagas BALB/c mouse model infected with trypomastigotes stage of Trypanosoma cruzi strain CL Brener assessed as mortality at 50 mg/kg/day, po administered for 14 days started on day 9 post infection measured on day 20; assay type: organism-based; settings: in vivo
Trypanosoma cruzi [6] = assay: as §1, with “assessed as reduction in parasitaemia at 10” for “assessed as survival rate at 10”, “60 days by Neubauer chamber analysis relative to control” for “60 days”; assay type: functional; design: scale not given: the % may be the effect or the level left
Trypanosoma cruzi [7] = assay: as §1, with “time for maximum parasitaemia parasitaemia” for “survival rate”, “by Neubauer chamber analysis (reference value: 26 days)” for “measured at 30 to 60 days”; assay type: functional

Compound | IC50 (Trypanosoma cruzi [1]) [µM] | also measured
C/C(=N\NC(N)=[Se])c1ccc(Cl)c(Cl)c1 | 50.2 | 
O=C(Cn1ccnc1[N+](=O)[O-])NCc1ccccc1 [BENZNIDAZOLE] | 12.5 | Ratio CC50/IC50 [2]: 25; Activity (Mus musculus): Non-toxic; Activity (Trypanosoma cruzi [3]): Active
CC/C(=N\NC(N)=[Se])c1cccc(C(F)(F)F)c1 | 6.5 | 
C/C(=N\NC(N)=[Se])C(C)C | 50.2 | 
C/C(=N\NC(N)=[Se])c1cccc(Br)c1 | 1.2 | Ratio CC50/IC50 [2]: 39; survival at 10 mg/kg/day (Trypanosoma cruzi [4]): 71%; mortality at 336 h [5]: 100%; Activity (Trypanosoma cruzi [6]): 50%; Time (Trypanosoma cruzi [7]): 26 days
COc1ccc(/C=N/NC(N)=[Se])cc1 | 25.5 | 
C/C(=N\NC(N)=[Se])c1ccccc1 | 12.4 | 
C/C(=N\NC(N)=[Se])c1cccc(Cl)c1 | 12.5 | 
CN(C)c1ccc(/C=N/NC(N)=[Se])cc1 | 26.2 | 
C/C(=N\NC(N)=[Se])c1cccc(C)c1 | 12.2 | 
